In patent publication US20150031622A1, “RHOGEF12 IS A THERAPEUTIC TARGET FOR THE TREATMENT OF HEART FAILURE” (MAX-PLANCK-GESELLSCHAFT ZUR FÖRDERUNG DER WISSENSCHAFTEN …, priority 2012, published 2015):
Bridges are numbered along the chain shown (N, C = ends). Where no end group is shown, it is not given here.

System: neonatal rat ventricular myocytes (NRVM)
Assay: qRT-PCR of hypertrophy-specific genes (ANP, β-MHC) in NRVM
Assay type: cell-based
Conditions: NRVM control cells
Experimental: Neonatal rat ventricular myocytes (NRVM) were isolated from 1-2 days old rat neonates using a kit from Worthington Biochemical Corporation (Lakewood, N.J., USA). After digestion, cells were pre-plated for 1 h to remove nonmyocytes, plated on cell culture dishes pre-coated with 1% gelatin (Sigma-Aldrich) and then cultured in Dulbecco's modified Eagle's medium (DMEM) with 10% fetal bovine serum. The following day, cells were cultured in serum-free DMEM medium containing 100 μM 5-bromo 2′-deoxy-uridine (BrdU; Sigma-Aldrich). NRVM were transfected with siRNAs (Qiagen, Chatsworth, Calif., USA or Sigma-Aldrich) using Lipofectamine RNAiMAX (Invitrogen, San Diego, Calif., USA) 3 h and 20 h after plating according to the manufacturer's instructions. […]
RNA was extracted from left ventricles with the RNA fibrosis tissue kit (Qiagen) and from NRVM or adult mouse cardiomyocytes with the RNeasy Mini kit (Qiagen) according to the manufacture's protocol. […] Reverse transcriptase (RT) reaction was performed using the QuantiTect Reverse Transcription kit (Qiagen). Quantitative RT-PCR was performed using the LightCycler 480 Probe Master or LightCycler 480 SYBR Green Master (Roche). […]
Primers for the analysis of RhoGEF expression were used as described previously^40. Data are in all cases presented after normalization to GAPDH, in some cases the relative change compared to basal conditions was calculated.

## endothelin-1 (CSCSSLMDKECVYFCHLDIIW; disulfide 1-15, 3-11; ends not checked; UniProt P05305 53-73, looked up) [ET-1, hypertrophic stimulus, GPCR agonist, purchased from Sigma-Aldrich]
  expression of hypertrophy-specific genes (ANP, β-MHC) after stimulus: increased gene expression
